The results in this text go back to US20160272635A1, “SUBSTITUTED DIHYDROPYRIDO[3,4-B]PYRAZINONES AS DUAL INHIBITORS OF BET PROTEINS AND POLO-LIKE KINASES” (BAYER PHARMA AKTIENGESELLSCHAFT, priority 2013, published 2016).

Like-named read-outs stand apart in the source and are kept apart here.

For one test, the target named is T1, Plk-1 (Homo sapiens, UniProt P53350).
T1 construct: Recombinant fusion protein consisting of GST and Plk (kinase domain 33-345); MW 36 kDa; GST; made in house; host or cells: insect cells (Hi5)
T1 sequence (P53350 33-345): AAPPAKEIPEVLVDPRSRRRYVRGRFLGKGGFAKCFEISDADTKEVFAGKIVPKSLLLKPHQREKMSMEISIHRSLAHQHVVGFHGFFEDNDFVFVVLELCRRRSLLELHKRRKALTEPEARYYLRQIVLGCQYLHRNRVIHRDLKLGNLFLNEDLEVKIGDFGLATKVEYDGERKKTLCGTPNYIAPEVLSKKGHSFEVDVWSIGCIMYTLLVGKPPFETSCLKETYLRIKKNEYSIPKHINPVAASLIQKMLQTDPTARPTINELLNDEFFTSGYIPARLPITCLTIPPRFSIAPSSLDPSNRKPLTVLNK
The experiment in a line: Plk-1 enzyme assay (indirect HTRF kinase assay). The class given is biochemical. As to the method: Recombinant fusion protein consisting of GST and Plk (kinase domain 33-345; MW 36 kDa, conc 0.8 μg/μl) expressed from insect cells (Hi5) and purified by glutathione Sepharose affinity chromatography and subsequent gel filtration (Superdex 75) is used for the kinase assay. Aliquots thereof are frozen in liquid nitrogen and stored at −80° C. and, after thawing, used only once.
The assay used is an indirect HTRF assay which employs the following materials and procedures. The substrate used for the kinase reaction is the biotinylated peptide Btn-Ahx-KKLNRTLSFAEPG-amide x TFA from Biosyntan, Sample No.: 6178.1 (C-terminus in amide form). This is an artificial sequence not derived from any known protein. 50 nl of the test compounds dissolved in 100% dimethyl sulphoxide (DMSO) (final concentrations: 0 μM and concentrations in the range of 0.001-20 μM) are pre-incubated with 2 μl Plk-1 enzyme working solution in working buffer [25 mM MgCl2; 1 mM DTT; 50 mM Hepes pH 7.0; 0.01% NP40; 1× Complete; 0.05% BSA] for 30 min. The kinase reaction is then initiated by addition of 3 μl of substrate solution [adenosine triphosphate (ATP) and 1.4 μM substrate peptide (biotin-Ttds-KKLNRTLSFAEPG-NH2)] in working buffer, and, after 30 min, stopped by addition of a stopper solution (100 mM EDTA, 100 mM Hepes pH 7.5, 800 mM potassium fluoride, 0.12% BSA, 0.4 μM SA-XLent (0.05 μM, from CIS bio international, Marcoule, France), Eu^3+ cryptate-conjugated rabbit anti-mouse IgG (1.5 nM; an anti-mouse IgG antibody labelled with europium cryptate from CIS bio international, Marcoule, France), 1 nM anti-phospho-serine kinase (a phospho-specific antibody from Upstate Biotechnology, Dundee, Scotland), and incubated at 4° C. overnight.
For the test at low ATP concentration, a 1.25 ng/μl Plk-1 working solution and 16.7 μM ATP are used, for the test at high ATP concentration, a 0.039 ng/μl Plk-1 working solution and 16.7 mM ATP are used.
The amount of phosphorylated substrate peptide is then determined by measuring the resonance energy transfer from europium-labelled antibody complex to streptavidine-XLent. To this end, the fluorescence emission at 620 nm and 665 nm is measured following excitation at 350 nm in an HTRF measuring instrument, e.g. Rubystar (BMG Labtechnologies, Offenburg, Germany) or Viewlux (Perkin-Elmer). The ratio of the emissions at 665 nm and at 620 nm is taken as a measure of the amount of phosphorylated substrate peptide. The data are normalized (enzyme reaction without inhibitor=0% inhibition, all other assay components, but no enzyme=100% inhibition), and IC50 values are calculated using a 4 parameter equation (minimum, maximum, IC50, Hill; Y=max+(min−max)/(1+(X/IC50)Hill)).

For test [1], the target named is T2, BRD4 bromo domain 1 [BRD4(1)] (Homo sapiens, UniProt O60885).
T2 construct: N-terminally His6-tagged BRD4(1) (amino acids 67-152); made in house; host or cells: E. coli
The experiment in a line: BRD4(1)/acetylated peptide H4 binding assay (TR-FRET). As to conditions: inhibition of interaction between BRD4(1) and acetylated histone H4 peptide. The text has this: To assess the BRD4(1) binding strength of the substances described in this application, the ability thereof to inhibit the interaction between BRD4(1) and acetylated histone H4 in a dose-dependent manner was quantified.
For this purpose, a time-resolved fluorescence resonance energy transfer (TR-FRET) assay was used, which measures the binding between N-terminally His6-tagged BRD4(1) (amino acids 67-152) and a synthetic acetylated histone H4 (Ac-H4) peptide with sequence GRGK(Ac)GGK(Ac)GLGK(Ac)GGAK(Ac)RHGSGSK-biotin. The recombinant BRD4(1) protein produced in-house according to Filippakopoulos et al., Cell, 2012, 149:214-231 was expressed in E. coli and purified by means of (Ni-NTA) affinity and (Sephadex G-75) size exclusion chromatography. The Ac-H4 peptide can be purchased, for example, from Biosyntan (Berlin, Germany).
In the assay, typically 11 different concentrations of each substance (0.1 nM, 0.33 nM, 1.1 nM, 3.8 nM, 13 nM, 44 nM, 0.15 μM, 0.51 μM, 1.7 μM, 5.9 μM and 20 μM) were analysed as duplicates on the same microtitre plate. For this purpose, 100-fold concentrated solutions in DMSO were prepared by serial dilutions (1:3.4) of a 2 mM stock solution into a clear, 384-well microtitre plate (Greiner Bio-One, Frickenhausen, Germany). From this, 50 n1 were transferred into a black test plate (Greiner Bio-One, Frickenhausen, Germany). The test was started by the addition of 2 μl of a 2.5-fold concentrated BRD4(1) solution (final concentration typically 10 nM in the 5 μl of reaction volume) in aqueous assay buffer [50 mM HEPES pH 7.5, 50 mM sodium chloride (NaCl), 0.25 mM CHAPS and 0.05% serum albumin (BSA)] to the substances in the test plate. This was followed by a 10-minute incubation step at 22° C. for the pre-equilibration of putative complexes between BRD4(1) and the substances.
The mixture was then incubated in the dark at 22° C. for one hour and then at 4° C. for at least 3 hours and for no longer than overnight. The formation of BRD4(1)/Ac-H4 complexes was determined by the measurement of the resonance energy transfer from the streptavidin-Eu cryptate to the anti-6His-XL665 antibody present in the reaction. For this purpose, the fluorescence emission was measured at 620 nm and 665 nm after excitation at 330-350 nm in a TR-FRET measuring instrument, for example a Rubystar or Pherastar (both from BMG Lab Technologies, Offenburg, Germany) or a Viewlux (Perkin-Elmer). The ratio of the emissions at 665 nm and at 622 nm was taken as an indicator of the amount of BRD4(1)/Ac-H4 complexes formed.
The data (ratios) obtained were normalized, with 0% inhibition corresponding to the mean from the measurements for a set of controls (typically 32 data points) in which all the reagents were present. In these, in place of test substances, 50 nl of DMSO (100%) were used Inhibition of 100% corresponded to the mean from the measurements for a set of controls (typically 32 data points) in which all the reagents except BRD4(1) were present. The IC50 was determined by regression analysis based on a 4-parameter equation (minimum, maximum, IC50, Hill; Y=Max+(Min−Max)/(1+(X/IC50)Hill).
Background: In TR-FRET formats the signal depends on donor and acceptor labels being close together.

For another test, the system named is MOLM-13 cell line. The experiment in a line: MOLM-13 cell proliferation assay (alamarBlue). The class given is cell-based. The conditions noted are these: Homo sapiens; MOLM-13 cells, 96 hours incubation, inhibition of cell proliferation. As to the method: In accordance with the invention, the substances were tested for their ability to inhibit the proliferation of the MOLM-13 cell linie (Deutsche Sammlung far Mikroorganismen and Zellkulturen [German Collection of Microorganisms and Cell Cultures], ACC 554). Cell viability was determined by means of the alamarBlue® reagent (Invitrogen) in a Victor X3 Multilabel Reader (Perkin Elmer). The excitation wavelength was 530 nm and the emission wavelength […].
The MOLM-13 cells were shown at a density of 4000 cells/well in 100 μl of growth medium on 96-well microtitre plates. After overnight incubation at 37° C., the fluorescence values (CI values) were determined. The plates were then treated with various substance dilutions and incubated at 37° C. for 96 hours. Subsequently, the fluorescence values were determined (CO values). For the data analysis, the CI values were subtracted from the CO values and the results were compared between cells which had been treated with various dilutions of the substance or only with buffer solution. The IC50 values (substance concentration needed for 50% inhibition of cell proliferation) were calculated therefrom.
In general terms: Alamar Blue is a resazurin reagent that responds to reducing activity.

Setting [2] is: 10 μM ATP (low ATP concentration), read-out: IC50 [Plk-1] (10 μM ATP).
Where [3] appears, read: 10 mM ATP (high ATP concentration), read-out: IC50 [Plk-1] (10 mM ATP).

Regarding `CC[C@@H]1C(=O)N(C)c2cnc(Nc3ncc(C(=O)NC4CCOCC4)cc3C)cc2N1C1CCCC1` [Example 17, 6-{[(2R)-1-Cyclopentyl-2-ethyl-4-methyl-3-oxo-1,2,3,4-tetrahydropyrido[3,4-b]pyrazin-7-yl]amino}-5-methyl-N-(tetrahydro-2H-pyran-4-yl)pyridine-3-carboxamide], the IC50 (usually the concentration needed to halve the response being measured) at Plk-1 (setting [2]) came to 8 nM; on Plk-1 (setting [3]), 14 nM; in test [1] it was 539 nM; with MOLM-13 cell line, 55 nM.

As to `CC[C@@H]1C(=O)N(C)c2cnc(Nc3ncc(C(=O)NC4CCCCC4)cc3OC)cc2N1C1CCCC1` [Example 20, N-Cyclohexyl-6-[[(2R)-1-cyclopentyl-2-ethyl-1,2,3,4-tetrahydro-4-methyl-3-oxopyrido[3,4-b]pyrazin-7-yl]amino]-5-methoxypyridine-3-carboxamide], the half-maximal inhibitory concentration (IC50) was determined as 35 nM at Plk-1 (setting [3]), 878 nM in test [1] and 101 nM in the test with MOLM-13 cell line.

As for `CC[C@@H]1C(=O)N(C)c2cnc(Nc3ncc(C(=O)NC(C)(C)CO)cc3OC)cc2N1C1CCCC1` [Example 11, 6-[[(2R)-1-Cyclopentyl-2-ethyl-1,2,3,4-tetrahydro-4-methyl-3-oxopyrido[3,4-b]pyrazin-7-yl]amino]-N-(2-hydroxy-1,1-dimethylethyl)-5-methoxy-3-pyridinecarboxamide], the IC50 amounted to 57 nM on Plk-1 (setting [3]), 393 nM in test [1] and 74 nM in the test with MOLM-13 cell line.

Turning to `COc1cc(C(=O)NC2CCN(C)CC2)cnc1Nc1cc2c(cn1)N(C)C(=O)C(C)N2C1CCCC1` (stereo not shown) [Example 6, 6-[(1-Cyclopentyl-2,4-dimethyl-3-oxo-1,2,3,4-tetrahydropyrido[3,4-b]pyrazin-7-yl)amino]-5-methoxy-N-(1-methylpiperidin-4-yl)pyridine-3-carboxamide], the IC50 on Plk-1 (setting [3]) was 19 nM; in test [1], 243 nM; in the test with MOLM-13 cell line, 114 nM.

`COc1cc(C(=O)NC2CC2)cnc1Nc1cc2c(cn1)N(C)C(=O)C(C)N2C1CCCC1` (stereo not shown) [Example 1, 6-{[1-Cyclopentyl-2,4-dimethyl-3-oxo-1,2,3,4-tetrahydropyrido[3,4-b]pyrazin-7-yl]amino}-N-cyclopropyl-5-methoxypyridine-3-carboxamide]: the figures for the half-maximal inhibitory concentration (IC50) (on Plk-1 (setting [2]); in test [1]; in the test with MOLM-13 cell line) were 15 nM, 204 nM and 209 nM, respectively.

With `CCC1C(=O)N(C)c2cnc(Nc3ncc(C(=O)NC4CC4)cc3OC)cc2N1C1CCCC1` (stereo not shown) [Example 4, 6-[(1-Cyclopentyl-2-ethyl-1,2,3,4-tetrahydro-4-methyl-3-oxopyrido[3,4-b]pyrazin-7-yl)amino]-N-cyclopropyl-5-methoxy-3-pyridinecarboxamide], the results for the half-inhibitory concentration (IC50) (on Plk-1 (setting [3]); in test [1]; in the test with MOLM-13 cell line) were 31 nM, 450 nM and 68 nM, respectively.

For `CC[C@@H]1C(=O)N(C)c2cnc(Nc3ncc(C(=O)NCC(F)(F)F)cc3OC)cc2N1C1CCCC1` [Example 7, 6-[[(2R)-1-Cyclopentyl-2-ethyl-1,2,3,4-tetrahydro-4-methyl-3-oxopyrido[3,4-b]pyrazin-7-yl]amino]-5-methoxy-N-(2,2,2-trifluoroethyl)-3-pyridinecarboxamide], the IC50 at Plk-1 (setting [2]) came to 11 nM; on Plk-1 (setting [3]), 30 nM; in test [1], 276 nM; in the test with MOLM-13 cell line it was 80 nM.

On to `COc1cc(C(=O)NC2CC2)cnc1Nc1cc2c(cn1)N(C)C(=O)[C@@H](C)N2C1CCCC1` [Example 2, 6-{[(2R)-1-Cyclopentyl-2,4-dimethyl-3-oxo-1,2,3,4-tetrahydropyrido[3,4-b]pyrazin-7-yl]amino}-N-cyclopropyl-5-methoxypyridine-3-carboxamide], for which the half-inhibitory concentration (IC50) was 17 nM on Plk-1 (setting [2]), 126 nM in test [1] and 93 nM in the test on MOLM-13 cell line.

In the case of `CC[C@@H]1C(=O)N(C)c2cnc(Nc3ncc(C(=O)NC4CC4)cc3OC)cc2N1C1CCCC1` [Example 5, 6-[[(2R)-1-Cyclopentyl-2-ethyl-1,2,3,4-tetrahydro-4-methyl-3-oxopyrido[3,4-b]pyrazin-7-yl)amino]-N-cyclopropyl-5-methoxy-3-pyridinecarboxamide], the IC50 is 7 nM at Plk-1 (setting [2]), 21 nM at Plk-1 (setting [3]), 225 nM in test [1] and 29 nM in the test with MOLM-13 cell line.

`CCc1cc(C(=O)NC2CC2)cnc1Nc1cc2c(cn1)N(C)C(=O)[C@@H](CC)N2C1CCCC1` [Example 3, 6-{[(2R)-1-Cyclopentyl-2-ethyl-4-methyl-3-oxo-1,2,3,4-tetrahydropyrido[3,4-b]pyrazin-7-yl]amino}-N-cyclopropyl-5-ethylpyridine-3-carboxamide]: the IC50 was found to be 8 nM at Plk-1 (setting [2]), 17 nM at Plk-1 (setting [3]), 199 nM in test [1] and 61 nM in the test with MOLM-13 cell line.
